Source: ChEMBL document CHEMBL6103591, “Discovery of naphthoquinone-furo-piperidone derivatives as dual targeting agents of STAT3 and NQO1 for the treatment of breast cancer” (Eur J Med Chem, 2025)

Assays:
[1] = Toxicity in female BALB/c nude mouse xenografted with human MDA-MB-231 cells assessed as morphological change in lung at 5 to 10 mg/kg, ip administered daily and measured every 2 days for 21 days by hematoxylin and eosin staining based analysis; assay type: organism-based; conditions: in vivo, 504 h, dose 5-10 mg/kg, time 21 day
[2] = Toxicity in female BALB/c nude mouse xenografted with human MDA-MB-231 cells assessed as morphological change in liver at 5 to 10 mg/kg, ip administered daily and measured every 2 days for 21 days by hematoxylin and eosin staining based analysis; assay type: organism-based; conditions: in vivo, 504 h, dose 5-10 mg/kg, time 21 day
[3] = Toxicity in female BALB/c nude mouse xenografted with human MDA-MB-231 cells assessed as morphological change in heart at 5 to 10 mg/kg, ip administered daily and measured every 2 days for 21 days by hematoxylin and eosin staining based analysis; assay type: organism-based; conditions: in vivo, 504 h, dose 5-10 mg/kg, time 21 day
[4] = Toxicity in female BALB/c nude mouse xenografted with human MDA-MB-231 cells assessed as body weight loss at 5 to 10 mg/kg, ip administered daily and measured every 2 days for 21 days; assay type: organism-based; conditions: in vivo, 504 h, dose 5-10 mg/kg, time 21 day
[5] = Toxicity in female BALB/c nude mouse xenografted with human MDA-MB-231 cells assessed as morphological change in kidney at 5 to 10 mg/kg, ip administered daily and measured every 2 days for 21 days by hematoxylin and eosin staining based analysis; assay type: organism-based; conditions: in vivo, 504 h, dose 5-10 mg/kg, time 21 day
MDA-MB-231 [6] = test: Antitumor activity against human MDA-MB-231 cells xenografted in female BALB/c nude mouse assessed as tumor growth inhibition at 5 mg/kg, ip administered daily and measured every 2 days for 21 days relative to control; assay type: functional; conditions: MDA-MB-231, 504 h, time 21 day, read-out: TGI
[7] = Toxicity in female BALB/c nude mouse xenografted with human MDA-MB-231 cells assessed as morphological change in spleen at 5 to 10 mg/kg, ip administered daily and measured every 2 days for 21 days by hematoxylin and eosin staining based analysis; assay type: organism-based; conditions: in vivo, 504 h, dose 5-10 mg/kg, time 21 day
MDA-MB-231 [8] = test: Antitumor activity against human MDA-MB-231 cells xenografted in female BALB/c nude mouse assessed as tumor growth inhibition at 10 mg/kg, ip administered daily and measured every 2 days for 21 days relative to control; assay type: functional; conditions: MDA-MB-231, 504 h, time 21 day, read-out: TGI

What does the source list for `Cl.O=C1C(=O)c2c(oc3c2CCN(CCN2CCCCC2)C3=O)-c2ccccc21`?
Activity [1]: Non-toxic; Activity [2]: Non-toxic; Activity [3]: Non-toxic; Activity [4]: Non-toxic; Activity [5]: Non-toxic; inhibition in vivo at 5 mg/kg (MDA-MB-231 [6]): 28.9%; Activity [7]: Non-toxic; inhibition in vivo at 10 mg/kg (MDA-MB-231 [8]): 56.8%
